{"source": "patent US20190233884A1", "about": "(University of Southern California, priority 2016, published 2019)", "tested_on": "patients with refractory metastatic colorectal cancer (mCRC)", "assay": "PFS, OS and disease control in the testing (validation) cohort of refractory mCRC patients receiving TAS-102 (n=129, Italy), by baseline characteristics, SNP genotype and toxicity", "assay_type": "in vivo, human", "details": "for Progression-free Survival HR (95% CI) univariate / Disease Control Rate PD / Disease Control Rate SD / Progression-free Survival Median, months (95% CI) / Overall Survival HR (95% CI) multivariate / Overall Survival HR (95% CI) univariate / Progression-free Survival HR (95% CI) multivariate / Overall Survival Median, months (95% CI): testing cohort; for HR OS (95% CI) / HR PFS (95% CI): ATM rs609429 Any G vs C/C (Ref.)", "method": "All patients underwent the treatment in salvage-line setting. […]\nGenomic DNA was extracted from peripheral whole blood in patients of all cohorts using the QIAmp Kit (Qiagen, Valencia, Calif., USA) according to the manufacturer's protocol (www.qiagen.com). The candidate SNPs were genotyped using PCR-based direct DNA sequence analysis by ABI 3100A Capillary Genetic Analyzer and Sequencing Scanner v1.0 (Applied Biosystems). Amplification of extracted DNA was carried out using both forward and reverse primers for each gene polymorphism as shown in Table 1. […] The investigators analyzing SNPs were blinded to the clinical data of the study patients.\nThe primary endpoint in this study was progression-free survival (PFS), and the secondary endpoints were overall survival (OS) and disease control rate (DCR). PFS was calculated from the date of starting treatment to the first observation of disease progression or death from any cause. If a patient had no disease progression or death, PFS was censored at the date of last follow up. OS was calculated from the date of starting treatment until the date of death from any cause or the date of the last follow-up, at which point OS was censored. The disease control rate (DCR) was defined as the proportion of patients who achieved a stable disease (SD) or […] according to RECISTv1.1. Chi-square test was used to examine the difference in baseline patient characteristics among the three cohorts. Allelic distribution of all SNPs by ethnicity for deviation from Hardy-Weinberg equilibrium and the allelic frequencies of SNPs were tested using the Chi-square tests with one degree of freedom. The associations between candidate SNPs and disease control, and toxicities were examined using contingency tables and Fisher's exact test. The associations of SNPs with PFS and OS were analysed using Kaplan-Meier curves and the log-rank test. Because the true mode of inheritance of candidate SNPs was not established yet, a codominant or dominant genetic model if appropriate was considered.\nAll patients underwent the treatment in salvage-line setting. […] In all patients, adverse events were graded according to the Common Terminology Criteria for Adverse Events, version 4.0. […]\nGenomic DNA was extracted from peripheral whole blood in patients of all cohorts using the QIAmp Kit (Qiagen, Valencia, Calif., USA) according to the manufacturer's protocol (www.qiagen.com). The candidate SNPs were tested using PCR-based direct DNA sequence analysis by ABI 3100A Capillary Genetic Analyzer and Sequencing Scanner v1.0 (Applied Biosystems). […] The investigators analyzing SNPs were blinded to the clinical data.\nThe primary endpoint in this study was progression-free survival (PFS), and the secondary endpoints were overall survival (OS) and disease control rate (DCR).", "key": {"[1]": {"details": "hENT1370_OCT019 Good and Excellent combined"}, "[2]": {"details": "hENT1370_OCT019 Good and Excellent combined vs Poor"}, "[3]": {"details": "testing/validation cohort, grade 3≤ neutropenia"}, "[4]": {"details": "testing/validation cohort, grade 3≤ neutropenia vs less than grade 3"}, "[5]": {"details": "testing/validation cohort, neutropenia less than grade 3"}, "[6]": {"details": "validation cohort, ATM rs609429 Any G"}, "[7]": {"details": "validation cohort, multivariable"}, "[8]": {"details": "validation cohort, ATM rs609429 C/C"}}, "data": [{"substance": "Trifluridine/tipiracil [TAS-102]", "values": [{"measurement": "Progression-free Survival HR (95% CI) univariate", "setting": "hENT1 rs9394992 C/T vs C/C", "value": "0.92 (0.61, 1.38)"}, {"measurement": "Disease Control Rate PD", "setting": "hENT1 rs9394992 T/T", "value": "9 (75%)"}, {"measurement": "Disease Control Rate SD", "setting": "hENT1 rs9394992 T/T", "value": "3 (25%)"}, {"measurement": "Progression-free Survival Median, months (95% CI)", "setting": "hENT1 rs9394992 T/T", "value": "2.5 (0.4, 3.9) months"}, {"measurement": "Overall Survival HR (95% CI) multivariate", "setting": "hENT1 rs9394992 T/T vs C/C", "value": "1.02 (0.38, 2.71)"}, {"measurement": "Overall Survival HR (95% CI) univariate", "setting": "hENT1 rs9394992 T/T vs C/C", "value": "1.06 (0.40, 2.79)"}, {"measurement": "Progression-free Survival HR (95% CI) multivariate", "setting": "hENT1 rs9394992 T/T vs C/C", "value": "0.79 (0.39, 1.58)"}, {"measurement": "Progression-free Survival HR (95% CI) univariate", "setting": "hENT1 rs9394992 T/T vs C/C", "value": "0.90 (0.45, 1.78)"}, {"measurement": "Disease Control Rate PD", "setting": "hENT1370_OCT019 Excellent", "value": "38 (64%)"}, {"measurement": "Disease Control Rate SD", "setting": "hENT1370_OCT019 Excellent", "value": "21 (36%)"}, {"measurement": "Disease Control Rate PD", "setting": "hENT1370_OCT019 Fair", "value": "25 (81%)"}, {"measurement": "Disease Control Rate SD", "setting": "hENT1370_OCT019 Fair", "value": "6 (19%)"}, {"measurement": "Overall Survival Median, months (95% CI)", "setting": "hENT1370_OCT019 Fair", "value": "4.0 (3.1, 8.8) months"}, {"measurement": "Progression-free Survival Median, months (95% CI)", "setting": "hENT1370_OCT019 Fair", "value": "1.9 (1.6, 2.0) months"}, {"measurement": "Overall Survival HR (95% CI) multivariate", "setting": "hENT1370_OCT019 Fair vs Poor", "value": "0.58 (0.25, 1.37)"}, {"measurement": "Overall Survival HR (95% CI) univariate", "setting": "hENT1370_OCT019 Fair vs Poor", "value": "0.77 (0.34, 1.75)"}, {"measurement": "Progression-free Survival HR (95% CI) multivariate", "setting": "hENT1370_OCT019 Fair vs Poor", "value": "1.13 (0.57, 2.24)"}, {"measurement": "Progression-free Survival HR (95% CI) univariate", "setting": "hENT1370_OCT019 Fair vs Poor", "value": "1.24 (0.64, 2.40)"}, {"measurement": "Disease Control Rate PD", "setting": "hENT1370_OCT019 Good", "value": "17 (71%)"}, {"measurement": "Disease Control Rate SD", "setting": "hENT1370_OCT019 Good", "value": "7 (29%)"}, {"measurement": "Overall Survival Median, months (95% CI)", "setting": "[1]", "value": "9.0 (5.1, 9.0) months"}, {"measurement": "Progression-free Survival Median, months (95% CI)", "setting": "[1]", "value": "2.1 (1.9, 2.4) months"}, {"measurement": "Overall Survival HR (95% CI) multivariate", "setting": "[2]", "value": "0.37 (0.17, 0.80)"}, {"measurement": "Overall Survival HR (95% CI) univariate", "setting": "[2]", "value": "0.42 (0.20, 0.90)"}, {"measurement": "Progression-free Survival HR (95% CI) multivariate", "setting": "[2]", "value": "0.71 (0.38, 1.30)"}, {"measurement": "Progression-free Survival HR (95% CI) univariate", "setting": "[2]", "value": "0.73 (0.40, 1.34)"}, {"measurement": "Disease Control Rate PD", "setting": "hENT1370_OCT019 Poor", "value": "11 (79%)"}, {"measurement": "Disease Control Rate SD", "setting": "hENT1370_OCT019 Poor", "value": "3 (21%)"}, {"measurement": "Overall Survival Median, months (95% CI)", "setting": "hENT1370_OCT019 Poor", "value": "3.6 (2.3, 8.5) months"}, {"measurement": "Progression-free Survival Median, months (95% CI)", "setting": "hENT1370_OCT019 Poor", "value": "2.0 (1.7, 2.4) months"}, {"measurement": "Progression-free Survival Median, months (95% CI)", "setting": "per OCT2 rs316000 genotype (row), OCT2 rs316000 A/A genotype", "value": "2.0 (1.9, 2.1) months"}, {"measurement": "Progression-free Survival Median, months (95% CI)", "setting": "per OCT2 rs316000 genotype (row), OCT2 rs316000 A/G genotype", "value": "1.9 (1.7, 2.4) months"}, {"measurement": "Progression-free Survival Median, months (95% CI)", "setting": "per OCT2 rs316000 genotype (row), OCT2 rs316000 Any G genotype", "value": "1.9 (1.8, 2.6) months"}, {"measurement": "Progression-free Survival Median, months (95% CI)", "setting": "per OCT2 rs316000 genotype (row), OCT2 rs316000 G/G genotype", "value": "3.7 (1.7, 6.8+) months"}, {"measurement": "OS", "setting": "[3]", "value": 8.8, "unit": "months"}, {"measurement": "PFS", "setting": "[3]", "value": 2.3, "unit": "months"}, {"measurement": "HR for OS", "setting": "[4]", "value": 0.21}, {"measurement": "HR for PFS", "setting": "[4]", "value": 0.50}, {"measurement": "OS", "setting": "[5]", "value": 3.7, "unit": "months"}, {"measurement": "PFS", "setting": "[5]", "value": 1.9, "unit": "months"}, {"measurement": "Disease Control CR/PR/SD, patients n (%)", "setting": "[6]", "value": "26 (33%)"}, {"measurement": "Median PFS (95% CI)", "setting": "[6]", "value": "2.0 (1.9, 2.3) months"}, {"measurement": "PD, patients n (%)", "setting": "[6]", "value": "52 (67%)"}, {"measurement": "HR OS (95% CI)", "setting": "[7]", "value": "0.80 (0.45, 1.41)"}, {"measurement": "HR PFS (95% CI)", "setting": "[7]", "value": "0.85 (0.56, 1.29)"}, {"measurement": "HR OS (95% CI)", "setting": "validation cohort, univariate", "value": "0.73 (0.43, 1.25)"}, {"measurement": "HR PFS (95% CI)", "setting": "validation cohort, univariate", "value": "0.78 (0.52, 1.16)"}, {"measurement": "Disease Control CR/PR/SD, patients n (%)", "setting": "[8]", "value": "11 (22%)"}, {"measurement": "Median OS (95% CI)", "setting": "[8]", "value": "4.4 (3.7, 9.0+) months"}, {"measurement": "Median PFS (95% CI)", "setting": "[8]", "value": "1.9 (1.8, 2.3) months"}, {"measurement": "OS", "setting": "[8]", "value": 4.4, "unit": "months"}, {"measurement": "PD, patients n (%)", "setting": "[8]", "value": "39 (78%)"}, {"measurement": "PFS", "setting": "[8]", "value": 1.9, "unit": "months"}]}]}
